# Assay results published in PubChem BioAssay (NCI).
#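 1) Cells in 96-well plates. 2) Compound, 48 h, 5 concentrations. 3) Linear interpolation between surrounding doses. 4) Unreached endpoint = highest concentration. GI50 is the concentration that inhibits growth by half. TGI: concentration producing complete growth inhibition.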
# Experiments:
# Test in all cases: DTP human tumour cell line panel, 48 h
# [1] = test system: DU-145 prostate
# [2] = test system: UACC-257 melanoma
# [3] = test system: M14 melanoma
# [4] = test system: HOP-62 NSCLC
# [5] = test system: U251 CNS
# [6] = test system: RXF 393 renal
# [7] = test system: SN12C renal
# [8] = test system: MDA-MB-231 breast
# [9] = test system: SR leukemia
# [10] = test system: EKVX NSCLC
SMILES,GI50 [1] [µM],TGI [1] [µM],GI50 [2] [µM],TGI [2] [µM],GI50 [3] [µM],TGI [3] [µM],GI50 [4] [µM],TGI [4] [µM],GI50 [5] [µM],TGI [5] [µM],GI50 [6] [µM],TGI [6] [µM],GI50 [7] [µM],TGI [7] [µM],GI50 [8] [µM],TGI [8] [µM],TGI [9] [µM],TGI [10] [µM],GI50 [10] [µM]
CCCCNC(=O)NS(=O)(=O)c1ccc(N2N=C(c3cc(C)ccc3C)CC2c2cc(OC)c(OC)c(OC)c2)cc1 (stereo unspecified),3.46,11.1,3.39,12.9,2.14,5.97,3.15,10.2,2.11,5.62,2.61,6.97,3.36,13.4,2.36,6.39,–,–,–
O=c1[nH]c(-c2ccc(-c3nc4cc([N+](=O)[O-])ccc4c(=O)[nH]3)cc2)nc2cc([N+](=O)[O-])ccc12,–,–,–,> 100,–,> 100,–,> 100,–,> 100,–,> 100,–,> 100,–,–,> 100,> 100,–
CCOC(=O)C1=C(Nc2cccc3ccccc23)OC/C1=N\NC(=O)c1ccccc1O,–,–,–,77.1,–,> 100,–,> 100,–,> 100,–,> 37.5,–,> 88,–,–,41.4,> 82.7,–
O=C(Nc1nc(=S)c2c(ncn2CCO)[nH]1)c1ccccc1,–,–,–,> 100,–,> 100,–,> 100,–,> 100,–,> 100,–,> 100,–,–,> 100,> 100,–
Cc1c(Cl)cccc1NC1=C(Cl)C(=O)N(Cc2ccccc2)C1=O,3.67,17.1,–,–,10.2,22,7.65,20.4,6.24,20.1,12,32.7,11.4,24.1,–,–,–,–,–
CS/C(=N\c1nccs1)NC(=O)c1cccc(Cl)c1,–,–,–,> 100,–,> 100,–,> 100,–,> 100,–,> 100,–,> 100,–,–,> 100,> 100,–
CC12CC(OC(=O)[C@]1(C)O)[C@@H]([C@]1(O)CC[C@H]3[C@@H]4C[C@H]5O[C@]56[C@@H](O)C=CC(=O)[C@]6(C)[C@H]4CC[C@@]31C)C2 (stereo partly specified),–,86.7,–,28.4,–,24.9,–,> 100,–,30,–,8.76,–,20.5,–,16.7,–,9.94,–
C=CCC(OCCOCC)c1cc(OCCOCC)ccc1OC (stereo unspecified),–,–,–,> 100,–,> 100,–,> 100,–,> 100,–,> 100,–,> 100,–,–,–,> 100,–
CCCC(Sc1ccccc1)P(=O)(c1ccccc1)c1ccccc1 (stereo unspecified),–,–,–,> 100,–,> 100,–,> 100,–,> 100,–,> 100,–,> 100,–,–,66.4,84.1,–
COC(=O)c1cc(-c2cccn2C)c2c(c1C(=O)OC)c1ccccc1n2C,–,–,–,> 100,–,> 100,–,–,–,> 100,–,> 100,–,> 100,–,–,> 100,–,–
CCC1CCc2c(OC)ccc(OCC(=O)O)c2C1=O (stereo unspecified),–,–,–,> 100,–,> 100,–,> 100,–,> 100,–,> 100,–,> 100,–,–,> 100,> 100,–
Cc1ccc2c(c1)C(=O)c1c-2n(CCCBr)c(=O)c2cc([N+](=O)[O-])ccc12,49.8,> 100,> 100,> 100,45.8,> 100,24.4,> 100,24.8,> 100,> 100,> 100,46.4,> 100,58.8,> 100,–,> 100,> 100
COC(=O)C1=C(C(=O)OC)SC(=C(N=Nc2ccccc2)c2ccccc2)S1,–,–,–,> 100,–,> 100,–,> 100,–,> 100,–,–,–,> 100,–,–,> 100,> 100,–
C=C1CCC2[C@@H](CCC3[C@]2(C)CCC[C@]3(C)C(=O)OC)C1CCO (stereo partly specified),–,–,–,18.6,–,26.5,–,41.7,–,26.4,–,–,–,27.5,–,–,–,37.9,–
O=C1c2ccccc2CC1C1(O)C(=O)Nc2ccccc21 (stereo unspecified),–,–,–,> 100,–,> 100,–,> 100,–,–,–,> 100,–,> 100,–,–,–,> 100,–
Cc1ccc(Sc2ccc(C)cc2[N+](=O)[O-])c([N+](=O)[O-])c1,–,–,–,> 10,–,> 100,–,> 100,–,> 100,–,> 100,–,> 100,–,–,–,> 100,–
COc1cc(/C=C/C(=O)c2sc(NNC(C)=O)nc2C)ccc1O,–,–,–,> 100,–,–,–,> 100,–,> 100,–,> 100,–,> 100,–,–,–,> 100,–

SMILES,GI50 [1] [µM],TGI [1] [µM],GI50 [2] [µM],TGI [2] [µM],GI50 [3] [µM],TGI [3] [µM],GI50 [4] [µM],TGI [4] [µM],GI50 [5] [µM],TGI [5] [µM],GI50 [6] [µM],TGI [6] [µM],GI50 [7] [µM],TGI [7] [µM],GI50 [8] [µM],TGI [8] [µM],TGI [9] [µM],TGI [10] [µM],GI50 [10] [µM]
C=CC1C(OC2OC(CO)C(O)C(O)C2O)OC=C(C(=O)OC)C1CC=O (stereo unspecified),–,–,–,–,–,> 100,–,> 100,–,> 100,–,> 100,–,> 100,–,–,> 100,> 100,–
CC1CCC(C(C)C)C(O[C@@H]2OC(=O)C[C@@H]2Sc2ccccc2)C1 (stereo partly specified),–,–,–,39.3,–,59.3,–,96,–,–,–,31.9,–,32,–,–,–,93.6,–
C1CCOC2(CCC3(CC2)OCCCCO3)OC1,–,–,–,> 100,–,> 100,–,> 100,–,> 100,–,> 100,–,> 100,–,–,> 100,–,–
CCCOC(=O)CCn1c(SC)nc2[nH]cc(-c3ccccc3)c2c1=O,27.8,> 100,33.8,> 100,15.6,> 100,5.49,88.2,12.8,87.4,19.1,54.8,20.1,> 100,38.3,> 100,–,> 100,33.9
O=C(CN(/C=C/C(=O)C(F)(F)F)c1ccccc1)c1ccc(Cl)c(Cl)c1,13,30.6,13.4,27.4,–,–,28.3,> 100,14.8,28.1,17.1,52.5,15.1,28.3,12.8,26.3,–,28.8,13.5
O=C(CCc1cc(-c2ccccc2)nc(=S)[nH]1)Nc1ccccc1[N+](=O)[O-],–,–,–,> 100,–,> 100,–,> 100,–,> 100,–,> 100,–,> 100,–,–,> 100,> 100,–
CC(=O)NC1CC2Oc3ccc(C)cc3C(C)(O2)C1O (stereo unspecified),–,–,–,> 100,–,> 100,–,> 100,–,> 100,–,> 100,–,> 100,–,–,–,> 100,–
N=C(N)c1ccc(COc2ccccc2OCc2ccc(C(=N)N)cc2)cc1,18.7,45.8,> 100,> 100,51.2,> 100,18.9,48.9,25.6,65.4,–,–,6.6,89.3,32.9,> 100,–,> 100,38.5
CCOC(=O)c1nc(-c2ccccc2)oc1OCC,–,–,–,–,–,> 100,–,> 100,–,> 100,–,> 100,–,> 100,–,–,–,38.6,–
CCOc1ccccc1/C=N\N=C(\N)N/N=C/c1ccccc1OCC,2.84,> 100,4.37,> 100,–,–,5.73,> 100,3.35,> 100,1.26,3.82,5.89,> 100,4.69,> 100,–,> 100,4.59
CC(C)C[C@H](NC(=O)[C@@H](O)[C@H](N)Cc1ccc([N+](=O)[O-])cc1)C(=O)O,> 25,> 25,> 25,> 25,> 25,> 25,> 25,> 25,> 25,> 25,19.2,> 25,–,–,> 25,> 25,–,> 25,> 25
C[C@@H](NC1CCC[C@H]1O)c1ccccc1 (stereo partly specified),–,–,–,> 100,–,> 100,–,> 100,–,> 100,–,> 100,–,> 100,–,–,–,> 100,–
CCN(CC)CC(C(=O)Nc1c(C)cccc1C)/C(C)=N\NC(=O)c1ccncc1 (stereo unspecified),–,–,–,> 100,–,> 100,–,> 100,–,> 100,–,> 100,–,> 100,–,–,> 100,–,–
COc1cc(C)c(O)c(C(=O)O)c1,–,–,–,> 100,–,> 100,–,> 100,–,> 100,–,> 100,–,> 100,–,–,> 100,–,–
N#Cc1cc([N+](=O)[O-])ccc1NC(=O)/C(=N/N)C(C(=O)c1ccc(Cl)c(Cl)c1)C1OC(=O)c2ccccc21 (stereo unspecified),–,–,–,> 100,–,–,–,> 100,–,> 100,–,> 100,–,> 100,–,–,> 100,> 100,–
O=C1CCC2(c3ccccc3)Nc3ncccc3N12 (stereo unspecified),–,–,–,> 100,–,> 100,–,> 100,–,> 100,–,> 100,–,> 100,–,–,–,> 100,–
